In ChEMBL document CHEMBL1133853, “Cyclopenta[g]quinazoline-based antifolates: the effect of the chirality at the 6-position on the inhibition of thymidylate synthase (TS)” (Bioorg Med Chem Lett, 2001):

Biological target: Thymidylate synthase (Mus musculus, UniProt P07607)
Experiment: Tested for inhibitory activity against thymidylate synthase of L1210 cells
Type: cell-based
Details: read-out: Ki app

Sequence of Thymidylate synthase (P07607 whole entry): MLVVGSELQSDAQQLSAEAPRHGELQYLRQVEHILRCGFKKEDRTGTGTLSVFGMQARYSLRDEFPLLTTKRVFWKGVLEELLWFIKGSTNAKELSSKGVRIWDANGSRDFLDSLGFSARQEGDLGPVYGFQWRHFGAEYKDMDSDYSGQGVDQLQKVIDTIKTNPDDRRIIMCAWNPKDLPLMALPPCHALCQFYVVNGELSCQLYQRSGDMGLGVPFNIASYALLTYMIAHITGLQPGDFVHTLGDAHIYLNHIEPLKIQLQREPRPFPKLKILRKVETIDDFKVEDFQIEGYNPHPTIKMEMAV

| SMILES | Ki |
| --- | --- |
| C#CCN(c1ccc(C(=O)N[C@@H](CCCS(=O)(=O)c2nc[nH]n2)C(=O)O)cc1)[C@@H]1CCc2cc3nc(C)nc(O)c3cc21 | 1200 nM |
| C#CCN(c1ccc(C(=O)N[C@@H](CCC(=O)N[C@H](CCC(=O)O)C(=O)O)C(=O)O)cc1)[C@@H]1CCc2cc3nc(C)[nH]c(=O)c3cc21 | 3.5 nM |
| C#CCN(c1ccc(C(=O)N[C@@H](CCC(=O)NC(CCC(=O)O)C(=O)O)C(=O)O)cc1)C1CCc2cc3nc(C)nc(O)c3cc21 (stereo partly specified) | 0.42 nM |

Results, then the compound that gave them:

| Ki | SMILES |
| --- | --- |
| 0.2 nM | C#CCN(c1ccc(C(=O)N[C@@H](CCC(=O)NC(CCC(=O)O)c2nnn[nH]2)C(=O)O)cc1)C1CCc2cc3nc(C)nc(O)c3cc21 (stereo partly specified) |
| 0.71 nM | C#CCN(c1ccc(C(=O)N[C@@H](CCCS(=O)(=O)c2nc[nH]n2)C(=O)O)cc1)[C@H]1CCc2cc3nc(C)nc(O)c3cc21 |
| 2.1 nM | C#CCN(c1ccc(C(=O)N[C@@H](CCC(=O)N[C@H](CCC(=O)O)c2nnn[nH]2)C(=O)O)cc1)[C@@H]1CCc2cc3nc(C)[nH]c(=O)c3cc21 |
